One experiment deals with SW1990 cells. In words: MTT cell proliferation assay on SW1990 cells. Conditions: Homo sapiens. Type of experiment: cell-based. Here is the method: (§1) Cell proliferation assay. The cytotoxicity of scFv-drug or free drug was quantified by using the Vybrant MTT cell proliferation assay kit (Molecular Probes). Assays were performed using 48-well microtiter plates containing 2×10^4 SW1990 (HdFa) cells/well in 300 μL of phenol-free growth medium. Cells were allowed to attach to the wells for 12 hours. For determination of IC50, cells were incubated for 3 or 12 h at 37° C. with various concentrations of Pan10-drug conjugates, maleimide derivatives or free drugs. Then the incubation was continued in conjugate/drug-free medium and the MTT assay was performed at the end of the seventh day. Medium was replaced with 100 μL of fresh medium containing 1.2 mM MTT and the incubation continued for three more hours. The cells were then lysed by adding 100 μL of a 10 mM solution of HCL containing SDS (100 mg/mL). The cell lysis was allowed to proceed for a period of 8 hours at the end of which the plate was centrifuged at 3000 rpm for 3 min and the supernatant transferred in a 96-well plate and read at 570 nm. Each assay included a […]. All assays were performed at least twice. A set of 8 data points was obtained with various concentration of cytotoxicity agent. In order to obtain the IC50 values, data points from each set were fit to the sigmoidal dose-response curve defined by Equation 3 using Grafit5 (Leatherbarrow R. J. 2003. Grafit version 5.08, Erithieus Software Ltd, Staines, England).
y^a=min y+[(max y−min y)/(1+(IC50/x^b)^slope)] (Equation 3)
^bx=concentration of drug (drug-scF)
Data points which were outliers (typically 1-2 per experiment) were discarded.
SW1990 cells treated with Pan10, Pan10-FM, Pan10-3 or Pan10-4 were examined by inverted microscopy for a qualitative determination of the effect of the drug conjugates on the cell viability. […] The cytotoxic effect of the Pan10-drug conjugates in comparison with the toxicity of the free drugs was then quantified by the MTT (3-(4,5-dimethylthiazol-2-yl)-2,5,-diphenyltetrazolium bromide) cell-proliferation assay. Liu et al., J Neurochem, 69: 581-593, 1997; Berridge et al., Arch Biochem Biophys, 303: 474-482, 1993; Vistica et al., Cancer Res, 51: 2515-2520, 1991. SW1990 pancreatic carcinoma cells were seeded and allowed to attach in growth medium overnight. The cultures were then treated for either 3 or 12 h with increasing concentrations of free drugs or Pan10-drug conjugates.
In general terms: Tetrazolium assays rely on reduction of a dye to a coloured formazan, in cell work by metabolically active cells.

The conditions of experiment [1]: Parrish et al. 2003; different cell line, exposure time and cytotoxicity assay; read-out: IC50, previously obtained values; cited from earlier work.
The next experiment deals with HdFa cells. As to the kind of experiment: MTT cell proliferation assay on normal HdFa cells. The experiment is classed as cell-based, human. Conditions: normal HdFa cells versus SW1990 cancer cells. Here is the method: as §1, with “In order to obtain the IC50 values, data points from each set were fit to the sigmoidal dose-response curve defined by Equation 3 using Grafit5 (Leatherbarrow R. J. 2003. Grafit version 5.08, Erithieus Software Ltd, Staines, England).” left out

For orientation: IC50 means the midpoint of a concentration-inhibition curve. On to `NCCCn1c(C(=O)Nc2ccc3[nH]c(C(=O)N4CC(CCl)c5c4cc(O)c4ccccc54)cc3c2)cc2ccccc21` (stereo not shown) [compound 2, 3-[5-(1-(3-aminopropyl)indole-2-carbonyl)aminoindole-2-carbonyl]-1-(chloromethyl)-5-hydroxy-1,2-dihydro-3H-benz[e]indole], for which the IC50 is 32100 ± 13100 pM in the experiment on SW1990 cells (SW1990, 3 h); 4300 ± 200 pM in the experiment on SW1990 cells (SW1990, 12 h); 30 pM in experiment [1].

In the case of `CC(=O)c1ccc2[nH]c(C(=O)N3C[C@@H](CCl)c4c3cc(O)c3ccccc43)cc2c1` [compound 1, 3-(5-acetylindole-2-carbonyl)-1-(S)-(chloromethyl)-5-hydroxy-1,2-dihydro-3H-benz[e]indole], the IC50 with SW1990 cells (SW1990, 3 h) is 1400 ± 200 pM; in the experiment on SW1990 cells (SW1990, 12 h) it was 430 ± 170 pM; in experiment [1] it was 2 pM. Besides, the “IC50 on HdFa cells relative to IC50 against SW1990 cells” value in the experiment with HdFa cells is on record as “roughly the same IC50 values against both cells lines”.

Values taken from US20080267981A1, “Compositions and Methods for Delivery of Antitumor Agents” (The Scripps Research Institute, priority 2004, published 2008).
